The values below come from PubChem BioAssay AID602214 (Southern Research Specialized Biocontainment Screening …, 2012).

The source made the active and inactive calls.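 Rule for the calls: active = inhibition of 30% or more at any tested concentration; inactive = the rest.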

A word on the IC50: it is the midpoint of a concentration-inhibition curve.

The target in the first test is Cytosol aminopeptidase (Homo sapiens) (UniProt P28838). Kind of test: inhibition of HuM17LAP aminopeptidase activity – biochemical, QFRET fluorogenic substrate, counter-screen for PfM17LAP inhibitor project, dose response (AID 602214). The conditions noted are these: purified recombinant human M17LAP, H-Leu-NHMec fluorescence. (In general: The purpose of a counterscreen is to sort out artefacts and off-target activity.)
Chain of Cytosol aminopeptidase (Homo sapiens) (P28838 whole entry, looked up): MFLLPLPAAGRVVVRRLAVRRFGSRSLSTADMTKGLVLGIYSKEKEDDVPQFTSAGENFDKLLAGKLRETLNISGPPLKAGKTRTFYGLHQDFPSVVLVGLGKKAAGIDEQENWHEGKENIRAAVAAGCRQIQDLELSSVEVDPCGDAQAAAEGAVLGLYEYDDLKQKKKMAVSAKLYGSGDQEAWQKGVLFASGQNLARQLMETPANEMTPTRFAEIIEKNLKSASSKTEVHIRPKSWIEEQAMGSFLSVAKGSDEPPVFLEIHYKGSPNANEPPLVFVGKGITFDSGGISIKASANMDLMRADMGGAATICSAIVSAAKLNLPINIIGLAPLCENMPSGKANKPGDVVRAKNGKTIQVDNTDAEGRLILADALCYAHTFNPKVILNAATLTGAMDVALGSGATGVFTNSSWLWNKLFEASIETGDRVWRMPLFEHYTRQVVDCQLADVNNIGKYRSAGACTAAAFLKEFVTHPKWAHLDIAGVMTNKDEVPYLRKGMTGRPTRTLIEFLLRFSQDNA
`O=C(NO)c1cccc2ccccc12`: the IC50 is 31900 nM.

On to `COC(=O)c1c(NC(=O)C2CC=CCC2C(=O)O)sc(C)c1-c1ccc(C)cc1` (centres undefined), for which the 50% inhibitory concentration (IC50) is 85700 nM.

As to `COc1ccc(CC(=O)NO)cc1`, the IC50 was 1640 nM.

Regarding `CCCCOc1ccc(C(=O)NO)cc1`, the IC50 was 8670 nM.

`CC(C)COc1ccc(CC(=O)NO)cc1`: the concentration for half-maximal inhibition (IC50) is 210 nM.

Take `O=C(Cc1ccc(Oc2ccccc2)cc1)NO`: the IC50 was 520 nM.

For `CCOc1ccc(CC(=O)NO)cc1`, the IC50 was 1110 nM.

Consider `CCCCCCCCCC(=O)NO`, for which the IC50 was 8230 nM.

Take `CCCCOc1ccc(CC(=O)NO)cc1`: the IC50 is 310 nM.

For the compound `COc1ccc(CCCC(=O)NO)cc1`, the IC50 was 4580 nM.

In the case of `O=C(Cc1cccc2ccccc12)NO`, the IC50 was 990 nM.

As for `O=C(Cc1ccc(OCc2ccccc2)cc1)NO`, the IC50 was 1180 nM.

Take `COc1ccc(OCCC(=O)NO)cc1`: the IC50 is 44200 nM.

On to `O=C(Cc1ccc2ccccc2c1)NO`, for which the IC50 was 290 nM.

For the compound `O=C(Cc1ccc2c(c1)CCCC2)NO`, the IC50 is 280 nM.

`CCCCc1ccc(CC(=O)NO)cc1`: the IC50 was 350 nM.

On to `Cc1ccc(CC(=O)NO)cc1`, for which the IC50 is 1820 nM.

Regarding `CCCCOc1ccc(CCC(=O)NO)cc1`, the IC50 is 16200 nM.

Staying with this test, now noted: purified recombinant human M17LAP, H-Leu-NHMec fluorescence; at 25 µM (top of the series).
For `CCCCOc1ccc(CNc2c(N(C)O)c(=O)c2=O)cc1`, the inhibition result was “inactive”.

The same test, now with this note: purified recombinant human M17LAP, H-Leu-NHMec fluorescence; at 50 µM (top of the series).
For `CCCCOc1ccc(CC(=O)N(C)O)cc1`, the inhibition result was “inactive”.

Consider `COC(=O)c1ccccc1NC(=O)c1cc2cc3ccc(C)cc3nc2s1`, for which the inhibition result was “inactive”.

As for `O=C1OCCC1Sc1nnc(NC2CCCCC2)s1` (centres undefined), the inhibition result was “inactive”.

For the compound `COC(=O)c1ccccc1NC(=O)c1ccc2c(Cl)c3c(nc2c1)CCC3`, the inhibition result is “inactive”.

Take `O=C(CSc1nccc(=O)[nH]1)Nc1ccc(Oc2ccccc2)cc1`: the inhibition result is “inactive”.

Still in this test, the particulars now being: purified recombinant human M17LAP, H-Leu-NHMec fluorescence; at 100 µM (top of the series).
On to `CCCCOc1ccc(CC(=O)O)cc1`, for which the inhibition result is “inactive”.

`Cc1cc(=O)[nH]c(SCC(=O)Nc2ccccc2)n1`: the inhibition entry was “inactive”.

As to `N[C@@H](Cc1c[nH]c2ccccc12)C(=O)NO`, the inhibition entry was “inactive”.

Regarding `CCn1c2ccccc2c2cc(NC(=O)CSc3nc(C)cc(=O)[nH]3)ccc21`, the inhibition result was “inactive”.

Regarding `CN(O)C(=O)Cc1ccc(OCc2ccccc2)cc1`, the inhibition entry is “inactive”.

As to `O=C(CSc1ccccc1)Nc1cccc2c1C(=O)NC2=O`, the inhibition entry is “inactive”.

Regarding `Cc1ccc(NC(=O)CSc2nc(O)cc(=O)n2Cc2ccccc2)cc1`, the inhibition entry was “inactive”.

On to `COC(=O)c1cc(OC)c(OC)cc1NC(=O)c1sc2nc(C)ccc2c1N`, for which the inhibition entry was “inactive”.

In the case of `CC1CCc2sc(C(=O)Nc3cccc4c3C(=O)NC4)cc2C1` (centres undefined), the inhibition entry was “inactive”.

Turning to `CC(C)(C(=O)NO)c1ccccc1`, the inhibition entry was “inactive”.

On to `COC(=O)c1c(NC(=O)C2CCCCC2C(=O)O)sc2c1CCC(c1ccccc1)C2` (centres undefined), for which the inhibition entry is “inactive”.

In the case of `O=C(Nc1ccc(Cl)cc1)Nc1ccccc1C(=O)O`, the inhibition result was “inactive”.

Turning to `O=C(O)c1ccccc1C(=O)Nc1nc2c(s1)CCCC2`, the inhibition entry was “inactive”.

In the case of `CCC(C)(C)C1CCc2c(sc(NC(=O)C3CC(C)=C(C)CC3C(=O)O)c2C(=O)OC)C1` (centres undefined), the inhibition entry was “inactive”.

In the case of `CC1=C(C)CC(C(=O)Nc2nc(-c3cc(C)ccc3C)c(C)s2)C(C(=O)O)C1` (centres undefined), the inhibition result was “inactive”.

Consider `COc1ccc(-c2nnc(NC(=O)C3CC(C)=C(C)CC3C(=O)O)s2)cc1` (centres undefined), for which the inhibition result was “inactive”.

Take `CC(C)C[C@H](N)C(=O)NO`: the inhibition entry was “inactive”.

Regarding `CCCOc1ccc(CC(=O)OC)cc1`, the inhibition result was “inactive”.

Consider `O=C(CSc1nc(O)cc(=O)[nH]1)Nc1ccccc1`, for which the inhibition entry was “inactive”.

For the compound `CCCCOc1ccc(CNc2c(N(O)Cc3ccccc3)c(=O)c2=O)cc1`, the inhibition entry is “inactive”.

Take `COc1cc(NC(=O)c2ccc(-c3ccccc3)cc2)c(C(=O)O)cc1OC`: the inhibition result was “inactive”.

In the case of `O=C(CSc1nccc(=O)[nH]1)Nc1ccc(N2CCOCC2)cc1`, the inhibition result is “inactive”.

For `CCC(C)Oc1ccc(CC(=O)OC)cc1` (centres undefined), the inhibition result was “inactive”.

On to `CC1=C(C)CC(C(=O)Nc2ccc(Oc3ccc(Cl)cc3)cc2)C(C(=O)O)C1` (centres undefined), for which the inhibition result is “inactive”.

Regarding `COC(=O)Cc1ccc(OCC(C)C)cc1`, the inhibition entry was “inactive”.

`COC(=O)Cc1ccc(OCCN(C)C)cc1`: the inhibition result was “inactive”.

Take `Cc1cc(SCC(=O)Nc2ccccc2C(=O)O)nc2ccccc12`: the inhibition entry is “inactive”.

In the case of `NC(N)=NCCC[C@H](N)C(=O)NO`, the inhibition entry was “inactive”.

On to `COC(=O)c1c(NC(=O)c2ccccc2C(=O)O)sc2c1CCCC2`, for which the inhibition result was “inactive”.

In the case of `COc1cc(NC(=O)CSc2ccccc2)c(C(=O)O)cc1OC`, the inhibition result is “inactive”.
